Results as given in paper PMC11725581, “Developing novel Lin28 inhibitors by computer aided drug design” (Cell Death Discovery, 2025).
Numbering of substitutions follows the chain as printed.

Key:
Lin28b ZKD [1] = target: T1, Lin28b ZKD (Homo sapiens, UniProt Q6ZN17); assay: Fluorescence polarization (FP) assay, Lin28b ZKD:pre-let-7d interaction; format: binding; settings: for IC50: 10 nM pre-let-7d probe, 1 μM Lin28b ZKD; for activity in protein-based assays: FP / EMSA
T1 sequence (Q6ZN17 127-166 limits assumed): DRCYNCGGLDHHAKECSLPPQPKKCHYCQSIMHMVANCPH
Description: (§1) We conducted two biochemical assays, FP and EMSA, to validate the predicted compounds. To optimize the FP assays, we performed a series of titrations using: (1) FAM-labeled pre-let-7d RNA probe, (2) Lin28b ZKD protein, and (3) non-labeled pre-let-7 probe as a competitor (Fig. 2A). These assays yielded the optimal concentrations required for the subsequent FP validation assays, namely 10 nM for the pre-let-7d probe and 1 μM for Lin28b ZKD protein. The FP signal from the free probe was set as 0%, while the signal from the probe-ZKD complex in the absence of compounds was set as 100%. C1632 was used as a control Lin28 inhibitor (Fig. 2B). […] Since the docking pocket is almost identical between Lin28a and Lin28b homologs, we repeated the FP assays using Lin28a ZKD (Figure S2).
(§2) The fluorescein amidites (FAM)-tagged pre-Let-7d probe with the sequence of […] was purchased from Integrated DNA Technologies (IDT). The probe at the concentrations ranging from 1 nM to 50 uM was incubated with Lin28B (ZKD) or Lin28 (CSD+ZKD) to a final volume of 30 uL at room temperature for 20 min. To read the fluorescence, a TECAN 500 machine was used. Fluorescence polarization was calculated using the following equation:
P=(Fparrallel−Fperpendicular)/(Fparrallel+FperpendicularP)
where P is the fluorescence polarization reading, F parallel is the fluorescence intensity acquired from the parallel excitation plane, and F perpendicular is the fluorescence intensity acquired from the perpendicular direction of the excitation plane. The total fluorescence intensity is estimated using the following equation:
F=Fparallel+2FperpendicularF.
(§3) All the raw FP signal data from the TECAN 500 FP results were analyzed using Prism 8.0 (GraphPad, San Diego, CA, USA); normalized curves were plotted and IC50 values were estimated. All FP data were repeated three to five times.
Figure S1. Lin28b ZKD protein was incubated with the indicated compounds at the concentration of 0, 0.1, 0.2, 0.5, 1, 2, 5, 10, 20, 50, 100, and 200uM. FP signals were measured and plotted relative to that from vehicle.

Lin28a ZKD = target: T2, Lin28a ZKD (Homo sapiens, UniProt Q9H9Z2); assay: Fluorescence polarization (FP) assay, Lin28a ZKD:pre-let-7 interaction; format: binding; settings: 0-200 uM
T2 sequence (Q9H9Z2 137-176 limits assumed): T1 sequence (Q6ZN17 127-166 limits assumed) with S17K, Y27F, M32S, N37S, H40L
Description: as §1
as §2, with “equation: […]” for “equation:”
as §3
Figure S2. Lin28a ZKD protein was incubated with the indicated compounds at the concentration of 0, 0.1, 0.2, 0.5, 1, 2, 5, 10, 20, 50, 100, and 200uM. FP signals were measured and plotted relative to that from vehicle.

[2] = test system: Lin28b protein expression in DuNE cells; assay: Lin28b protein levels by immunoblotting in DuNE cells; format: cell-based; settings: 20uM, 72 h
Description: We further tested whether the 13 candidate compounds could penetrate the cell membrane, endure cell-mediated metabolism and excretion, and inhibit Lin28 activities inside cancer cells. […] Since let-7 and Lin28b mutually regulate each other’s expression, increased let-7 expression by Lin28 inhibitors would suppress Lin28b protein levels.
Fig. 3 Validate CADD predicted compounds by cell-based assays. A, B DuNE cells were treated with Lin28b inhibitors for 72 h. Let-7d RNA levels were measured by real-time qPCR (A) and Lin28b protein levels were measured by immunoblotting (B). […] Cell proliferation rates were measured by Incucyte. D Overlay of 1H-15N HSQC spectra for Lin28b-ZKD (black), Lin28b-ZKD + Ln15 (orange), and Lin28b-ZKD + Ln268 (blue). Ligands were added in a 20:1 molar ratio. Approximately 20 residues are seen to shift (from black to orange/blue), with ca. 5 resonances disappearing for Lin28b-ZKD in the presence of Ln268. E Overlay of the 20 NMR models for 2CQF (gray) and 2LI8 (blue) showing the rearrangement of residues 137–160 in going from Lin28b-ZKD alone to the conformation with RNA present. The conformation of Lin28b-ZKD in the presence of the ligands described herein might resemble that of 2LI8, but with a larger conformational spread. All results are presented as the mean ± SD.
Total RNA was extracted by TRIZOL reagent (Invitrogen), treated with deoxyribonuclease and reversely transcribed by random hexamers and superscript II (Invitrogen). Real-time qPCR was performed on the ABI PRISM 7900 HT system (Applied Biosystems) using the FastStart Universal SYBR Green Master mix (Roche) following standard protocol as we reported. All real-time qPCR assays were carried out in triplicates from three independent cDNA syntheses. For immunoblotting assays, whole cell lysis was extracted by a buffer containing 50mM of Tris pH8.0, 150mM of NaCl, 1% NP40, 0.5% sodium deoxycholate, 0.1% SDS and proteinase and phosphatase inhibitors (Roche). Protein lysis separated by SDS-PAGE, transferred to polyvinylidene difluoride membrane, and blotted by specific antibodies.

Lin28b ZKD [3] = target: T1, Lin28b ZKD; assay: EMSA, Lin28b ZKD:pre-let-7d complex formation; format: binding; settings: 1 μM Lin28 ZKD, 10 nM IRDye800-labeled pre-let-7d probe
Description: We next validated the newly developed compounds using EMSA, a non-florescent-based assay to detect Lin28b ZKD:pre-let-7 complex formation. Similar to the FP assays, we first optimized the experimental conditions by titrating: (1) IRDye800-labeled pre-let-7d RNA probe, (2) Lin28b ZKD protein, and (3) non-labeled pre-let-7 probe as a competitor (Fig. 2C). For the validation experiments, 1 μM Lin28 ZKD and 10 nM of IRDye800-labeled pre-let-7d probe were mixed with each candidate compound. Compounds C1632 and Ln15 were used as control Lin28 inhibitors, respectively. […] Regardless, we use these two biochemical assays to shortlist the most promising compounds for further characterization. […] While our inhibitors directly target the Lin28 ZKD, it is unclear whether C1632 may bind to domains other than the ZKD or allosterically disrupt Lin28’s capacity to bind its RNA substrates.
EMSA followed the standard protocols we published. An IRDye800CWN-labeled pre-Let-7d RNA probe (5’-IRD800CWN-[…]-3’) was purchased from IDT (Coralville, IA, USA). Lin28a or Lin28b proteins were incubated with 300 nM of probe in a standard 20 uL EMSA reaction in a reaction buffer containing 20 mM HEPES-NaOH, pH 7.4, 2 mM DTT, 3 mM MgCl2, 0.05% NP-40, protease inhibitors, and 0.1 ug poly[dI:dC]. After incubation for 30 min at 37 °C, reactions were loaded onto 4% non-denatured polyacrylamide gel in 0.5× TBE buffer. The RNA oligo bands were visualized by using the Li-Cor Odyssey 9120 Infrared Imaging System.

## O=c1cccc(-c2nc(=O)c3cc(O)c(F)cc3[nH]2)[nH]1 [Ln115]
Lin28b ZKD [1]
  IC50: 21 µM

## CC(C)(C)c1ccc(O)c(Nc2cccc(=O)[nH]2)c1 [Ln250]
Lin28b ZKD [1]; FP assays used for SAR guided design
  FP potency relative to Ln15: outperformed Ln15

## CC(C)c1cc(Nc2csc(=O)[nH]2)c(O)cc1O [Ln267]
Lin28b ZKD [1]
  IC50: 4.67 µM
  activity in protein-based assays: higher potency in FP assays
Lin28a ZKD
  potency in blocking the Lin28a ZKD:pre-let-7 interaction (FP) relative to parents: more potent than Ln15 and Ln115
[2]
  effect on Lin28b protein expression: suppressed Lin28b protein expression

## Cc1cccc(Nc2csc(=O)[nH]2)c1O [Ln269]
Lin28b ZKD [3]
  inhibition of Lin28b ZKD:pre-let-7d complex formation (EMSA): capable of inhibiting Lin28:pre-let-7d complex formation in a dose-dependent manner
[2]
  effect on Lin28b protein expression: suppressed Lin28b protein expression

## O=c1cccc(-c2nc3cc(F)c(O)c(F)c3c(=O)[nH]2)[nH]1 [Ln272]
Lin28a ZKD
  potency in blocking the Lin28a ZKD:pre-let-7 interaction (FP) relative to parents: more potent than Ln15 and Ln115
[2]
  effect on Lin28b protein expression: suppressed Lin28b protein expression

## Cc1c(F)c(O)c(F)c2c(=O)[nH]c(-c3cccc(=O)[nH]3)nc12 [Ln273]
[2]
  effect on Lin28b protein expression: suppressed Lin28b protein expression

## Cc1cc2[nH]c(-c3cccc(=O)[nH]3)nc(=O)c2cc1O [Ln274]
Lin28b ZKD [3]
  inhibition of Lin28b ZKD:pre-let-7d complex formation (EMSA): capable of inhibiting Lin28:pre-let-7d complex formation in a dose-dependent manner

## Cc1cc(-c2nc(=O)c3cc(O)c(F)cc3[nH]2)[nH]c(=O)c1 [Ln275]
Lin28b ZKD [1]
  activity in protein-based assays: inactive

## O=c1cccc(-c2nc(=O)c3cc(O)c(CO)cc3[nH]2)[nH]1 [Ln276]
Lin28b ZKD [3]
  inhibition of Lin28b ZKD:pre-let-7d complex formation (EMSA): capable of inhibiting Lin28:pre-let-7d complex formation in a dose-dependent manner

## CN(C)c1ccc(=O)[nH]c1-c1nc(=O)c2cc(O)c(F)cc2[nH]1 [Ln277]
Lin28b ZKD [1]
  activity in protein-based assays: inactive

## Cn1cnc2c(=O)[nH]c(-c3nc(=O)c4cc(O)c(F)cc4[nH]3)cc21 [Ln279]
Lin28b ZKD [3]
  inhibition of Lin28b ZKD:pre-let-7d complex formation (EMSA): capable of inhibiting Lin28:pre-let-7d complex formation in a dose-dependent manner
Lin28b ZKD [1]
  activity in protein-based assays: active
Lin28a ZKD
  potency in blocking the Lin28a ZKD:pre-let-7 interaction (FP) relative to parents: more potent than Ln15 and Ln115

## Cc1cc(O)cc2c(=O)nc(-c3nccc(=O)[nH]3)[nH]c12 [Ln282]
Lin28b ZKD [1]
  activity in protein-based assays: inactive

## O=c1cccc(Nc2ccc(O)cc2O)[nH]1 [Ln295]
Lin28b ZKD [1]
  activity in protein-based assays: inactive

## O=c1cccc(Nc2ccccc2O)[nH]1 [Ln296]
Lin28b ZKD [1]
  activity in protein-based assays: inactive

## O=c1cccc(Nc2ncc(O)cc2O)[nH]1 [Ln298]
Lin28b ZKD [3]
  inhibition of Lin28b ZKD:pre-let-7d complex formation (EMSA): capable of inhibiting Lin28:pre-let-7d complex formation in a dose-dependent manner
Lin28b ZKD [1]
  activity in protein-based assays: active
Lin28a ZKD
  potency in blocking the Lin28a ZKD:pre-let-7 interaction (FP) relative to parents: more potent than Ln15 and Ln115
[2]
  effect on Lin28b protein expression: suppressed Lin28b protein expression

## O=c1cccc(Nc2ccncc2O)[nH]1 [Ln300]
Lin28b ZKD [3]
  inhibition of Lin28b ZKD:pre-let-7d complex formation (EMSA): capable of inhibiting Lin28:pre-let-7d complex formation in a dose-dependent manner
Lin28b ZKD [1]
  activity in protein-based assays: active
Lin28a ZKD
  potency in blocking the Lin28a ZKD:pre-let-7 interaction (FP) relative to parents: more potent than Ln15 and Ln115
[2]
  effect on Lin28b protein expression: suppressed Lin28b protein expression

## Cc1c(O)cnc(Nc2cccc(=O)[nH]2)c1O [Ln302]
Lin28b ZKD [3]
  inhibition of Lin28b ZKD:pre-let-7d complex formation (EMSA): capable of inhibiting Lin28:pre-let-7d complex formation in a dose-dependent manner
Lin28b ZKD [1]
  IC50: 3.63 µM
Lin28a ZKD
  potency in blocking the Lin28a ZKD:pre-let-7 interaction (FP) relative to parents: more potent than Ln15 and Ln115

## O=c1cccc(Nc2cccc(O)c2O)[nH]1 [Ln306]
Lin28b ZKD [3]
  inhibition of Lin28b ZKD:pre-let-7d complex formation (EMSA): capable of inhibiting Lin28:pre-let-7d complex formation in a dose-dependent manner
Lin28a ZKD
  potency in blocking the Lin28a ZKD:pre-let-7 interaction (FP) relative to parents: more potent than Ln15 and Ln115
